According to patent publication EP4623702A1, “ORAL PRODUCT” (Nicoventures Trading Limited, priority 2024, dated 2025):
Where two headings read alike, the source gives them in different places.

Experiments:
[1] = target: T1, MDCK-MDR1 cell line heterologously expressing the human P-gp transporter (MDR1) (Homo sapiens, UniProt P08183); experiment: in vitro; details: dog, MDCK-MDR1, pH 7.4
[2] = target: T1, MDCK-MDR1 cell line heterologously expressing the human P-gp transporter (MDR1); details: for effect of quercetin on BBB permeability of the compound: MDCK-MDR1
[3] = target: P-gp (MDR1, ABCB1), human (Homo sapiens, UniProt P08183); experiment: in vitro; details: dog, MDCK-MDR1, pH 7.4
[4] = target: T1, MDCK-MDR1 cell line heterologously expressing the human P-gp transporter (MDR1); experiment: MDCK-MDR1 permeability assay (in vitro model for BBB permeation, P-gp substrate identification, with/without inhibitors); details: Compound Alone; apical to basolateral; 1 or 10 µM, 60 minutes, pH 7.4 (Table 2)
p-glycoprotein = p-glycoprotein (Homo sapiens, UniProt P08183); details: value stated as basis for the 30 µM inhibitor concentration; no source given; cited from earlier work
p-glycoprotein, sequence (P08183 whole entry): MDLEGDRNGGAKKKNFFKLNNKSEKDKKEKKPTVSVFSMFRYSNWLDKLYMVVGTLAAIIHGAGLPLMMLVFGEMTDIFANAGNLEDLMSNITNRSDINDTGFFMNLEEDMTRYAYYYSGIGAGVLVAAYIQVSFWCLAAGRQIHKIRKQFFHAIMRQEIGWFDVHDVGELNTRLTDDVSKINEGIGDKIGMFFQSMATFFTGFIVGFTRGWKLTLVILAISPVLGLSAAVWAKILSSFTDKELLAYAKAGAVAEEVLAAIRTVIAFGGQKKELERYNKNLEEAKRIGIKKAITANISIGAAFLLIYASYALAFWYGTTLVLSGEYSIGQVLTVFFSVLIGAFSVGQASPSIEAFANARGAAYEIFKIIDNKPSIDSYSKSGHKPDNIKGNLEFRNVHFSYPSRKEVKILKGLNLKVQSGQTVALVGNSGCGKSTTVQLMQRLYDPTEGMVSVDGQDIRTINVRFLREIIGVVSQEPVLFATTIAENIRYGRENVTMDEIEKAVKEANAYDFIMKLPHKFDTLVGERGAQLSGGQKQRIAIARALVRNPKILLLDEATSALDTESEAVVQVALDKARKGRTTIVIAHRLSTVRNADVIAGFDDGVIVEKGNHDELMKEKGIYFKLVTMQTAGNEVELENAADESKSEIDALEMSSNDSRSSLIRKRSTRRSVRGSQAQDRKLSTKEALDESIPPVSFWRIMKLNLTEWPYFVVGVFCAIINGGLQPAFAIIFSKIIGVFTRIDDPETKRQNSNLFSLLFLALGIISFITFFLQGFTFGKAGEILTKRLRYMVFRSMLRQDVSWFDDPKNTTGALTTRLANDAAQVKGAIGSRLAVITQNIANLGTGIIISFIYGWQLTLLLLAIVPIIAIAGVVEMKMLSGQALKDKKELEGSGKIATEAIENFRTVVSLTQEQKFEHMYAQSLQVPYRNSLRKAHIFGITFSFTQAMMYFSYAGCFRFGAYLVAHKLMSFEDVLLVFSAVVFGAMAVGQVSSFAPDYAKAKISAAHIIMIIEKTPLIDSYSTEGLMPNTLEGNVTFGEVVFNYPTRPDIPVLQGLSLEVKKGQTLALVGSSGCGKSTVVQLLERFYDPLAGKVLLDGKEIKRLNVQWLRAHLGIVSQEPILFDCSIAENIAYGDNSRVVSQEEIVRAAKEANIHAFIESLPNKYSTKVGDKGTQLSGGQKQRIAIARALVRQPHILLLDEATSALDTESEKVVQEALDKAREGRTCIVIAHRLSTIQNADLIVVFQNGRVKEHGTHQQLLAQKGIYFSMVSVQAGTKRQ

P-gp (MDR1, ABCB1), human, sequence (P08183 whole entry): as above
T1 sequence (P08183 whole entry): as above

| SMILES | Papp A→B at 60 min [3] [×10⁻⁶ cm/s] | Papp B→A at 60 min [3] [×10⁻⁶ cm/s] | Papp at 60 min [3] [×10⁻⁶ cm/s] | A2B Apparent permeability (Papp) ([2]; dog, MDCK-MDR1, 60 min, pH 7.4) [×10⁻⁶ cm/s] | Papp A→B at 1 h [1] [×10⁻⁶ cm/s] | Papp B→A at 1 h [1] [×10⁻⁶ cm/s] | A2B Apparent permeability (Papp) ([2]; MDCK-MDR1, pH 7.4) [×10⁻⁶ cm/s] | B2A Apparent permeability (Papp) ([2]; MDCK-MDR1, pH 7.4) [×10⁻⁶ cm/s] | other results |
| --- | --- | --- | --- | --- | --- | --- | --- | --- | --- |
| CC1=C(C)C(=O)O[C@@H]([C@](C)(O)[C@H]2CC[C@H]3[C@@H]4[C@@H]5O[C@@H]5[C@@]5(O)CC=CC(=O)[C@]5(C)[C@H]4CC[C@]23C)C1 [Withanolide A] |  |  |  |  | 3.65 | 22.2 | 17.3 | 20 | effect of quercetin on BBB permeability of the compound [2]: did not, for instance, significantly enhance |
| CC1=C(C=O)C(C)(C)CC=C1 [Safranal] |  |  |  |  | 90 | 43.3 |  |  |  |
| CC1=C(C)C(=O)O[C@@H]([C@@H](C)[C@H]2CC[C@H]3[C@@H]4[C@@H]5O[C@@H]5[C@@]5(O)CC=CC(=O)[C@]5(C)[C@H]4CC[C@]23C)C1 [Withanolide B] |  |  |  |  | 12 | 13.3 | 13.5 | 11.6 |  |
| CC1=C(C)C(=O)O[C@@H]([C@@H](C)[C@@]2(O)CC[C@H]3[C@@H]4[C@@H]5O[C@@H]5[C@@]5(O)CC=CC(=O)[C@]5(C)[C@H]4CC[C@@]32C)C1 [Withanone] |  |  |  |  |  |  |  |  | Papp A→B [3]: 1.23 ×10⁻⁶ cm/s; Papp B→A [3]: 31.6 ×10⁻⁶ cm/s; effect of quercetin on BBB permeability of the compound [2]: did not, for instance, significantly enhance; B2A Apparent permeability (Papp) ([2]; dog, MDCK-MDR1, pH 7.4): 19.7 ×10⁻⁶ cm/s |
| O=c1cc(-c2ccc(O)cc2)oc2cc(O)cc(O)c12 [Apigenin] | 9.71 | 19.1 | 1 to 10 | 9.71 |  |  |  |  |  |
| O=C(/C=C/C=C/c1ccc2c(c1)OCO2)N1CCCCC1 [Piperine, (2E,4E)-5-(2H-1,3-benzodioxol-5-yl)-1-(piperidin-1-yl)-penta-2,4-dien-1-one] |  |  |  |  |  |  |  |  | EC50 (p-glycoprotein): 30 µM |
| O=C(O)[C@H]1O[C@@H](Oc2cc(O)c3c(=O)cc(-c4ccc(O)c(O)c4)oc3c2)[C@H](O)[C@@H](O)[C@@H]1O [Luteolin-7-glucoronide, Luteolin 7-glucuronide] |  |  |  |  | 0.205 | 0.076 | 0.175 | 0.134 |  |

Further lines, with some results ahead:

| Papp A→B at 60 min [3] [×10⁻⁶ cm/s] | Papp B→A at 60 min [3] [×10⁻⁶ cm/s] | Papp at 60 min [3] [×10⁻⁶ cm/s] | A2B Apparent permeability (Papp) ([2]; dog, MDCK-MDR1, 60 min, pH 7.4) [×10⁻⁶ cm/s] | SMILES | Papp A→B at 1 h [1] [×10⁻⁶ cm/s] | Papp B→A at 1 h [1] [×10⁻⁶ cm/s] | A2B Apparent permeability (Papp) ([2]; MDCK-MDR1, pH 7.4) [×10⁻⁶ cm/s] | B2A Apparent permeability (Papp) ([2]; MDCK-MDR1, pH 7.4) [×10⁻⁶ cm/s] | other results |
| --- | --- | --- | --- | --- | --- | --- | --- | --- | --- |
| 0.174 | 0.35 | < 1 |  | CC1(C)CC[C@]2(C(=O)O)CC[C@]3(C)C(=CC[C@@H]4[C@@]5(C)CC[C@H](O)C(C)(C)[C@@H]5CC[C@]43C)[C@@H]2C1 [Oleanoic acid, Oleanolic acid] |  |  |  |  | A2B Apparent permeability (Papp) [4]: 0.174 ×10⁻⁶ cm/s |
| 0.22 | 3.12 | < 1 | 0.22 | CC(/C=C/C=C(\C)C(=O)O[C@@H]1O[C@H](CO[C@@H]2O[C@H](CO)[C@@H](O)[C@H](O)[C@H]2O)[C@@H](O)[C@H](O)[C@H]1O)=C\C=C\C=C(C)\C=C\C=C(/C)C(=O)O[C@@H]1O[C@H](CO[C@@H]2O[C@H](CO)[C@@H](O)[C@H](O)[C@H]2O)[C@@H](O)[C@H](O)[C@H]1O [Crocin] |  |  |  |  |  |
| 1.67 | 5.84 | 1 to 10 | 1.67 | CC(/C=C/C=C(\C)C(=O)O)=C\C=C\C=C(C)\C=C\C=C(/C)C(=O)O [Crocetin] |  |  |  |  |  |
